One assay concerns the target T1, KRAS(G12D)/SOS1 (Homo sapiens, UniProt P01116, G12D).
T1 construct: purchased Cisbio 63ADK000CB17PEH
The experiment in a line: KRAS(G12D)/SOS1 homogeneous time-resolved fluorescence (HTRF) assay. The format is binding. Conditions: absence of GTP; 4° C., 3 hr. In outline:
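HTRF kit assay of compound-blocked KRAS(G12D)–SOS1 interaction, run without GTP. Compounds were tested as 3-fold dilutions from 20 µM to 1.02 nM and incubated with the reaction components for 3 hr at 4 °C, sealed. IC50 was taken as the concentration giving 50% of maximal inhibition.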
For orientation: TR-FRET usually uses a lanthanide donor and a delayed reading to cut background.

The test system of assay [1] is AGS gastric carcinoma cells [heterozygous G12D]. The assay is described as follows: Cancer cell line proliferation (CellTiter-Glo), AGS. The format is cell-based. Conditions: Homo sapiens, 72 hr treatment, read-out: AGS CTG (EC50). In outline:
(§1)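 A 72 hr proliferation format is used: cells at 4,000/well, pre-grown 72 hr, then treated at 37° C./5% CO2 with 0.5% DMSO final. CellTiter-Glo measures viable cells, from which EC50 is calculated.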
(Cellular ATP, detected with luciferase, serves as a proxy for viable cell number.)

The subject of assay [2] is A-427 lung carcinoma cells [heterozygous G12D]. The assay is described as follows: Cancer cell line proliferation (CellTiter-Glo), A-427. The format is cell-based. As to conditions: Homo sapiens, A-427 cells, 72 hr treatment, read-out: A427 CTG (EC50). In outline: as §1
Assay [3] relates to ASPC1 pancreatic adenocarcinoma cells [homozygous G12D]. The assay is described as follows: Cancer cell line proliferation (CellTiter-Glo), ASPC1. It counts as cell-based. As to conditions: Homo sapiens, ASPC1, 72 h, 72 hr treatment, read-out: ASPC-1 CTG (EC50). In outline: as §1
Assay [4] concerns SW1990 pancreatic adenocarcinoma cells [homozygous G12D]. The experiment in a line: Cancer cell line proliferation (CellTiter-Glo), SW1990. The format is cell-based. Conditions: Homo sapiens, 72 hr treatment, read-out: SW1990 CTG (EC50). How it is done: The following cancer cell lines were employed: AGS gastric carcinoma [heterozygous G12D](ATCC, CRL-1739); A-427 lung carcinoma [heterozygous G12D](ATCC, HTB-53); ASPC1 pancreatic adenocarcinoma [homozygous G12D](ATCC, CRL-1682) and SW1990 pancreatic adenocarcinoma [homozygous G12D](ATCC CRL-2172). Cell lines were cultured essentially according to ATCC recommendations.
AGS, A-427, ASPC1, SW1990, and GP2D cells were plated in 96-well tissue culture plates at 4,000 cells/well and incubated at 37° C./5% CO2 for 72 hr in 100 μl of media. 3-fold serial dilutions of each test compound were prepared ranging from 20 μM to 1.02 nM. Each cell line was then treated with test compounds at various concentrations with a final concentration of 0.5% DMSO/well, and then incubated at 37° C./5% CO2 for 72 hr. 100 µl of CellTiter-Glo® Reagent (Promega Corporation, Madison, WI) was added to each well and processed according manufacturer's protocol. Results were analyzed and EC50 values were calculated in GraphPad 7 software.

T1 sequence (P01116 1-188 isoform P01116-2 G12D): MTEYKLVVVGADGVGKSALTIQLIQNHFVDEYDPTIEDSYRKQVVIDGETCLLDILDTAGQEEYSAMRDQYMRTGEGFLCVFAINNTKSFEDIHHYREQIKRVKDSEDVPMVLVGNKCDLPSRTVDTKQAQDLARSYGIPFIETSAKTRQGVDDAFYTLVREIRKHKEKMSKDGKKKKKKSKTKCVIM

`CC(C)c1cc(C(=O)N2Cc3ccc(CN4CCN([C@H]5C[C@@H](COc6nc(N7CC8CCC(C7)N8)c7cnc(-c8cc(O)cc9ccccc89)c(F)c7n6)N(C)C5)CC4)cc3C2)c(O)cc1O` [Compound 25] returned an IC50 against KRAS(G12D)/SOS1 of under 100 nM. In addition, the EC50 is under 100 nM in assay [1], 100 to 1000 nM in assay [2], over 1000 nM in assay [3] and under 100 nM in assay [4].
As to `CC(C)c1cc(C(=O)N2Cc3ccc(CN4CCN([C@H]5C[C@@H](COc6nc(N7CC8CCC(C7)N8)c7cnc(-c8cccc9ccccc89)c(F)c7n6)N(C)C5)CC4)cc3C2)c(O)cc1O` [Compound 35], at KRAS(G12D)/SOS1, the IC50 is over 1000 nM. In addition, the half-maximal effective concentration (EC50) in assay [1], in assay [2], in assay [3] and in assay [4] was 100 to 1000 nM throughout.
`C#Cc1cccc2cccc(-c3ncc4c(N5CC6CCC(C5)N6)nc(OCC5(CN6CCN(Cc7ccc(-n8c(C(=O)NCC(F)(F)F)nnc8-c8cc(C(C)C)c(O)cc8O)cc7)CC6)CC5)nc4c3F)c12` [Compound 54] had an IC50 at KRAS(G12D)/SOS1 of under 100 nM. The half-maximal effective concentration (EC50) in assay [1] is under 100 nM; in assay [2] it was 100 to 1000 nM; in assay [3], 100 to 1000 nM; in assay [4], under 100 nM.
`C#Cc1cccc2cccc(-c3ncc4c(N5CC6CCC(C5)N6)nc(OCC5(CN6CCN(Cc7ccc(-n8c(C(=O)NC(C)C(F)(F)F)nnc8-c8cc(C(C)C)c(O)cc8O)cc7)CC6)CC5)nc4c3F)c12` (stereo not drawn) [Compound 55] gave an IC50 against KRAS(G12D)/SOS1 of 100 to 1000 nM. The EC50 in assay [1], in assay [2], in assay [3] and in assay [4] was 100 to 1000 nM throughout.
For the compound `CCNC(=O)c1nnc(-c2cc(C(C)C)c(O)cc2O)n1-c1ccc(CN2CCC(C(=O)N3CCN([C@H]4C[C@@H](COc5nc(N6CC7CCC(C6)N7)c6cnc(-c7cccc(C)c7C)c(F)c6n5)N(C)C4)CC3)CC2)cc1` [Compound 56], the half-maximal inhibitory concentration (IC50) on KRAS(G12D)/SOS1 was over 1000 nM. Besides, the EC50 in assay [1] is under 100 nM; in assay [2] it was 100 to 1000 nM; in assay [3], 100 to 1000 nM; in assay [4], under 100 nM.
The compound `CC(C)c1cc(C(=O)N2Cc3ccc(CN4CCN([C@H]5C[C@@H](COc6nc(N7CC8CCC(C7)N8)c7cnc(-c8ccccc8C(F)(F)F)c(F)c7n6)N(C)C5)CC4)cc3C2)c(O)cc1O` [Compound 58] had an IC50 on KRAS(G12D)/SOS1 of over 1000 nM. In addition, the EC50 in assay [1] was under 100 nM; in assay [2] it was under 100 nM; in assay [3] it was 100 to 1000 nM; in assay [4] it was 100 to 1000 nM.
In the case of `COc1cccc2cccc(-c3ncc4c(N5CC6CCC(C5)N6)nc(OC[C@@H]5C[C@H](N6CCN(Cc7ccc8c(c7)CN(C(=O)c7cc(C(C)C)c(O)cc7O)C8)CC6)CN5C)nc4c3F)c12` [Compound 102], on KRAS(G12D)/SOS1, the IC50 was in the range of 100 to 1000 nM. For the same compound, the half-maximal effective concentration (EC50) in assay [1], in assay [2], in assay [3] and in assay [4] was 100 to 1000 nM throughout.
`CCNC(=O)c1nnc(-c2cc(C(C)C)c(O)cc2O)n1-c1ccc(CN2CCN([C@H]3C[C@@H](COc4nc(N5CC6CCC(C5)N6)c5cnc(-c6cccc7cccc(OC)c67)c(F)c5n4)N(C)C3)CC2)cc1` [Compound 103] showed a half-inhibitory concentration (IC50) at KRAS(G12D)/SOS1 of over 1000 nM. Further, the EC50 is under 100 nM in assay [1], 100 to 1000 nM in assay [2], 100 to 1000 nM in assay [3] and 100 to 1000 nM in assay [4].
`Cc1cccc2cccc(-c3ncc4c(N5CC6CCC(C5)N6)nc(OC[C@@H]5CC[C@H](CN6CCN(Cc7ccc(-n8c(C(=O)NC(C)C(F)(F)F)nnc8-c8cc(C(C)C)c(O)cc8O)cc7)CC6)N5C)nc4c3F)c12` (stereo partly drawn) [Compound 107] displayed a concentration for half-maximal inhibition (IC50) on KRAS(G12D)/SOS1 of 100 to 1000 nM. Further, the EC50 in assay [1], in assay [2], in assay [3] and in assay [4] was 100 to 1000 nM each time.
Consider `C#Cc1cccc2cc(O)cc(-c3ncc4c(N5CC6CCC(C5)N6)nc(OCC5(CN6CCN(CC7CCN(Cc8ccc9c(c8)CN(C(=O)c8cc(C(C)C)c(O)cc8O)C9)CC7)CC6)CC5)nc4c3F)c12` [Compound 117], for which the EC50 in assay [1] was under 100 nM; in assay [2], 100 to 1000 nM; in assay [3], 100 to 1000 nM; in assay [4], under 100 nM.
For the compound `C#Cc1cccc2cc(O)cc(-c3ncc4c(N5CC6CCC(C5)N6)nc(OCC5(CN6CCC(C(=O)N7CCN(Cc8ccc(-n9c(C(=O)NC(C)C(F)(F)F)nnc9-c9cc(C(C)C)c(O)cc9O)cc8)CC7)CC6)CC5)nc4c3F)c12` (stereo not drawn) [Compound 120], at KRAS(G12D)/SOS1, the concentration for half-maximal inhibition (IC50) was under 100 nM. In addition, the EC50 was under 100 nM in assay [1], 100 to 1000 nM in assay [2], 100 to 1000 nM in assay [3] and under 100 nM in assay [4].
At KRAS(G12D)/SOS1, `C#Cc1cccc2cc(O)cc(-c3ncc4c(N5CC6CCC(C5)N6)nc(OCC5(CN6CCC(C(=O)N7CCN(C(=O)C8CCN(Cc9ccc%10c(c9)CN(C(=O)c9cc(C(C)C)c(O)cc9O)C%10)CC8)CC7)CC6)CC5)nc4c3F)c12` [Compound 121] returned an IC50 of under 100 nM. The EC50 in assay [1] was under 100 nM; in assay [2] it was over 1000 nM; in assay [3], over 1000 nM; in assay [4] it was 100 to 1000 nM.
The compound `C#Cc1cccc2cccc(-c3ncc4c(N5CC6CCC(C5)N6)nc(OC[C@@H]5C[C@H](CN6CCN(Cc7ccc8c(c7)CN(C(=O)c7cc(C(C)C)c(O)cc7O)C8)CC6)CN5C)nc4c3F)c12` [Compound 122] came in with a half-inhibitory concentration (IC50) at KRAS(G12D)/SOS1 of under 100 nM. The half-maximal effective concentration (EC50) in assay [1], in assay [2], in assay [3] and in assay [4] was 100 to 1000 nM throughout.
On KRAS(G12D)/SOS1, `C#Cc1cccc2cc(O)cc(-c3ncc4c(N5CC6CCC(C5)N6)nc(OC[C@@H]5C[C@H](CN6CCN(Cc7ccc(-n8c(C(=O)NCC(F)(F)F)nnc8-c8cc(C(C)C)c(O)cc8O)cc7)CC6)CN5C)nc4c3F)c12` [Compound 123] displayed an IC50 of under 100 nM. In addition, the EC50 in assay [1] was under 100 nM; in assay [2] it was 100 to 1000 nM; in assay [3], 100 to 1000 nM; in assay [4] it was under 100 nM.
In the case of `C#Cc1cccc2cc(O)cc(-c3ncc4c(N5CC6CCC(C5)N6)nc(OCC5(CN6CCN(CC7CCN(c8ccc(-n9c(C(=O)NCC)nnc9-c9cc(C(C)C)c(O)cc9O)cc8)CC7)CC6)CC5)nc4c3F)c12` [Compound 124], on KRAS(G12D)/SOS1, the 50% inhibitory concentration (IC50) was under 100 nM. For the same compound, the concentration for a half-maximal effect (EC50) in assay [1] is under 100 nM; in assay [2], under 100 nM; in assay [3] it was 100 to 1000 nM; in assay [4], under 100 nM.
For the compound `C#Cc1c(F)ccc2cc(O)cc(-c3ncc4c(N5CC6CCC(C5)N6)nc(OCC5(CN6CCN(C7CCN(Cc8ccc(-n9c(C(=O)NC(C)C(F)(F)F)nnc9-c9cc(C(C)C)c(O)cc9O)cc8)CC7)CC6)CC5)nc4c3F)c12` (stereo not drawn) [Compound 160], the EC50 in assay [1], in assay [2], in assay [3] and in assay [4] was under 100 nM each time.
`C#Cc1c(F)ccc2cc(O)cc(-c3ncc4c(N5CC6CCC(C5)N6)nc(OCC5(CN6CCN(CC7CN(Cc8ccc(-n9c(C(=O)NC(C)C(F)(F)F)nnc9-c9cc(C(C)C)c(O)cc9O)cc8)C7)CC6)CC5)nc4c3F)c12` (stereo not drawn) [Compound 165] returned an IC50 against KRAS(G12D)/SOS1 of under 100 nM. Besides, the results for the EC50 in assay [1], in assay [3] and in assay [4] were under 100 nM, 100 to 1000 nM and under 100 nM, respectively.
`C#Cc1c(F)ccc2cc(O)cc(-c3ncc4c(N5CC6CCC(C5)N6)nc(OCC5(CN6CCN(CC7CN(Cc8ccc(-n9c(C(=O)NCC(F)(F)F)nnc9-c9cc(C(C)C)c(O)cc9O)cc8)C7)CC6)CC5)nc4c3F)c12` [Compound 166]: at KRAS(G12D)/SOS1, the IC50 was under 100 nM. Also, the EC50 in assay [1], in assay [3] and in assay [4] was under 100 nM throughout.
Turning to `C#Cc1cccc2cc(O)cc(-c3ncc4c(N5CC6CCC(C5)N6)nc(OCC5(CN6CCN(CC7CCN(Cc8ccc(-n9c(C(=O)NCC)nnc9-c9cc(C(C)C)c(O)cc9O)cc8)CC7)CC6)CC5)nc4c3F)c12` [Example 2, 4-(4-{[4-({4-[(1-{[(4-{3,8-diazabicyclo[3.2.1]octan-3-yl}-7-(8-ethynyl-3-hydroxynaphthalen-1-yl)-8-fluoropyrido[4,3-d]pyrimidin-2-yl)oxy]methyl}cyclopropyl)methyl]piperazin-1-yl}methyl)piperidin-1-yl]methyl}phenyl)-5-(2,4-dihydroxy-5-isopropylphenyl)-N-ethyl-1,2,4-triazole-3-carboxamide], the EC50 in assay [1], in assay [2], in assay [3] and in assay [4] was under 100 nM each time.

Broadly, the IC50 is the point on the concentration scale where inhibition reaches its midpoint. Higher therefore signals a need for much substance. As a reminder, the EC50 is the concentration at which the effect is half-maximal.

Values taken from patent publication US20260070929A1, “METHODS AND COMPOSITIONS FOR MODULATING KRAS(G12D)” (Ranok Therapeutics (Hangzhou) Co. LTD., priority 2022, published 2026).
